The record followed here is PubChem BioAssay AID330 (DTP/NCI, 2004).

Values joined by “and” are separate entries in the source; they are usually repeats but may differ in a detail not shown here. Equal values may be shown once. Toxic doses and inconclusive results are not listed.

The assay has as its system P388 leukemia ip, CD2F1 mice, survival T/C. The assay is described as follows: NCI In Vivo Anticancer Drug Screen. Data for tumor model P388 Leukemia (intraperitoneal) in CD2F1 (CDF1) mice. The note with it: endpoint: median survival time, higher = longer survival. In outline: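 Mice carrying the transplanted tumor received test compound or vehicle. Survival was recorded in each group, and the value is the treated-group measurement divided by that of the vehicle-treated control group.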

[1] abbreviates: dose: 50.0 mg/kg/injection, schedule: Q01DX009 (ip), vehicle: saline with Tween-80.
Where [2] appears, read: dose: 100.0 mg/kg/injection, schedule: Q01DX009 (ip), vehicle: saline with Tween-80.
The mark [3] stands for this setting: dose: 200.0 mg/kg/injection, schedule: Q01DX009 (ip), vehicle: saline with Tween-80.
Setting [4] is: dose: 25.0 mg/kg/injection, schedule: Q01DX009 (ip), vehicle: saline.
Where [5] appears, read: dose: 50.0 mg/kg/injection, schedule: Q01DX005 (ip), vehicle: saline.
The mark [6] stands for this setting: dose: 100.0 mg/kg/injection, schedule: Q01DX005 (ip), vehicle: saline.

With `COC1OCC2(C)OC(c3ccccc3)=NC2C1O` (configuration not stated), the T/C by setting is: (dose: 100.0 mg/kg/injection, schedule: Q04DX002 (ip), vehicle: Klucel (hydroxypropylcellulose) (HPC)) 90 % of control; (dose: 200.0 mg/kg/injection, schedule: Q04DX002 (ip), vehicle: Klucel (hydroxypropylcellulose) (HPC)) 100 % of control.

Turning to `C=C(C)C1(C(=O)OCC(Cl)(Cl)Cl)NC(=O)C(NC(=O)COc2ccccc2)=CO1` (configuration not stated), the T/C by setting is: (dose: 50.0 mg/kg/injection, schedule: Q01DX005 (ip), vehicle: saline with Tween-80) 99 % of control; (dose: 100.0 mg/kg/injection, schedule: Q01DX005 (ip), vehicle: saline with Tween-80) 88 % of control; (dose: 200.0 mg/kg/injection, schedule: Q01DX005 (ip), vehicle: saline with Tween-80) 95 % of control.

Regarding `COc1cccc2c1C(=O)c1c(O)c3c(c(O)c1C2=O)CC(O)(C(=O)COC1CC(OC(C)=O)C(OC(C)=O)C(C)O1)CC3OC1CC(OC(C)=O)C(OC(C)=O)C(C)O1` (configuration not stated), the T/C was 100 % of control (dose: 3.13 mg/kg/injection, schedule: Q04DX003 (ip), vehicle: saline with Tween-80); 100 % of control (dose: 6.25 mg/kg/injection, schedule: Q04DX003 (ip), vehicle: saline with Tween-80); 100 % of control (dose: 12.5 mg/kg/injection, schedule: Q04DX003 (ip), vehicle: saline with Tween-80); 95 % of control (dose: 25.0 mg/kg/injection, schedule: Q04DX003 (ip), vehicle: saline with Tween-80); 100 % of control (dose: 50.0 mg/kg/injection, schedule: Q04DX003 (ip), vehicle: saline with Tween-80).

In the case of `Cc1ncc(CO)c(C2NOCc3nscc32)c1O` (configuration not stated), the T/C is, setting by setting: (dose: 3.5 mg/kg/injection, schedule: Q04DX003 (ip), vehicle: saline) 100 % of control; (dose: 7.0 mg/kg/injection, schedule: Q04DX003 (ip), vehicle: saline) 95 % of control; (dose: 14.0 mg/kg/injection, schedule: Q04DX003 (ip), vehicle: saline) 100 % of control.

For the molecule `O=P(OCCN(CCOP(=O)(Oc1ccccc1)Oc1ccccc1)c1ccc2ccccc2c1)(Oc1ccccc1)Oc1ccccc1`, the T/C was 94 % of control under setting [1], 86 % of control under setting [2] and 96 % of control under setting [3].

Regarding `CCC(C(=O)O)C(=O)O.[NH-]CC1CCCC[N-]1.[Pt+2]`, the T/C (dose: 25.0 mg/kg/injection, schedule: Q01DX005 (ip), vehicle: saline) is 161 % of control; the T/C under setting [4] was 161 % of control; the T/C under setting [5] is 217 % of control; the T/C under setting [1] was 202 % of control; the T/C (dose: 50.0 mg/kg/injection, schedule: Q01DX009 (ip), vehicle: saline) was 189 % of control; the T/C under setting [6] is 243 % of control and 267 % of control. Besides, the T/C reads like this: (dose: 100.0 mg/kg/injection, schedule: Q01DX009 (ip), vehicle: saline) 252 % of control; (dose: 125.0 mg/kg/injection, schedule: Q01DX001 (ip), vehicle: saline) 161 % of control; (dose: 250.0 mg/kg/injection, schedule: Q01DX001 (ip), vehicle: saline) 191 % of control; (dose: 500.0 mg/kg/injection, schedule: Q01DX001 (ip), vehicle: saline) 173 % of control and 198 % of control.

As for `O=C1CCC(C(=O)O)C(C(=O)O)C1` (configuration not stated), the T/C is 107 % of control (dose: 50.0 mg/kg/injection, schedule: Q01DX001 (ip), vehicle: saline); 100 % of control (dose: 100.0 mg/kg/injection, schedule: Q01DX001 (ip), vehicle: saline); 101 % of control (dose: 200.0 mg/kg/injection, schedule: Q01DX001 (ip), vehicle: saline); 107 % of control (dose: 400.0 mg/kg/injection, schedule: Q01DX001 (ip), vehicle: saline).

In the case of `Cc1ccc(C(=O)/C([S-])=C(\Nc2cccc(Cl)c2)[n+]2ccccc2)cc1`, the T/C reads like this: (dose: 50.0 mg/kg/injection, schedule: Q01DX005 (ip), vehicle: Klucel (hydroxypropylcellulose) (HPC)) 100 % of control; (dose: 100.0 mg/kg/injection, schedule: Q01DX005 (ip), vehicle: Klucel (hydroxypropylcellulose) (HPC)) 98 % of control; (dose: 200.0 mg/kg/injection, schedule: Q01DX005 (ip), vehicle: Klucel (hydroxypropylcellulose) (HPC)) 93 % of control.

Turning to `CN1NC(c2ccccc2)NN(C)C1=O`, the T/C is, setting by setting: under setting [5], 97 % of control; under setting [6], 99 % of control; (dose: 200.0 mg/kg/injection, schedule: Q01DX005 (ip), vehicle: saline) 106 % of control.

Take `CCCCCCCCCCCCCCCC(=O)O`: the T/C runs as follows: under setting [1], 107 % of control; under setting [2], 102 % of control; under setting [3], 102 % of control.

`CC(=O)C1=CCC2C3=CCC4=CC(O)[C@@H](O)C[C@]4(C)C3C[C@@H](O)[C@]12C` (some centres not stated): the T/C is 100 % of control (dose: 0.94 mg/kg/injection, schedule: Q01DX005 (ip), vehicle: saline + alcohol); 108 % of control (dose: 1.88 mg/kg/injection, schedule: Q01DX005 (ip), vehicle: saline + alcohol); 108 % of control (dose: 3.75 mg/kg/injection, schedule: Q01DX005 (ip), vehicle: saline + alcohol); 100 % of control (dose: 6.25 mg/kg/injection, schedule: Q01DX005 (ip), vehicle: saline + Tween-80 + alcohol); 104 % of control (dose: 7.5 mg/kg/injection, schedule: Q01DX005 (ip), vehicle: saline + alcohol); 112 % of control (dose: 12.5 mg/kg/injection, schedule: Q01DX005 (ip), vehicle: saline + Tween-80 + alcohol). The T/C by setting is: (dose: 25.0 mg/kg/injection, schedule: Q01DX005 (ip), vehicle: saline + Tween-80 + alcohol) 109 % of control; (dose: 50.0 mg/kg/injection, schedule: Q01DX005 (ip), vehicle: saline + Tween-80 + alcohol) 118 % of control.

On to `CC(C)NC(=O)c1ccc(C/[N+]([O-])=C/c2ccccc2)cc1`, for which the T/C by setting is: (dose: 50.0 mg/kg/injection, schedule: Q01DX009 (ip), vehicle: distilled water + Tween-80) 95 % of control; (dose: 50.0 mg/kg/injection, schedule: Q01DX009 (ip), vehicle: other) 121 % of control; (dose: 100.0 mg/kg/injection, schedule: Q01DX009 (ip), vehicle: distilled water + Tween-80) 92 % of control and 95 % of control; (dose: 100.0 mg/kg/injection, schedule: Q01DX009 (ip), vehicle: other) 103 % of control; (dose: 200.0 mg/kg/injection, schedule: Q01DX009 (ip), vehicle: distilled water + Tween-80) 89 % of control and 92 % of control; (dose: 200.0 mg/kg/injection, schedule: Q01DX009 (ip), vehicle: other) 116 % of control. Besides, the T/C runs as follows: (dose: 400.0 mg/kg/injection, schedule: Q01DX009 (ip), vehicle: distilled water + Tween-80) 92 % of control; (dose: 800.0 mg/kg/injection, schedule: Q01DX009 (ip), vehicle: other) 153 % of control.

Consider `Cc1cc2nc3c(=O)[nH]c(=O)nc-3n(CC(O)C(O)C(O)CO)c2cc1C` (configuration not stated), for which the T/C is, setting by setting: under setting [1], 99 % of control and 104 % of control; under setting [2], 96 % of control and 98 % of control.

Turning to `O=NNc1nc(-c2cccnc2)nc2ccccc12`, the T/C was 112 % of control (dose: 1.25 mg/kg/injection, schedule: Q01DX009 (ip), vehicle: water); 110 % of control (dose: 2.5 mg/kg/injection, schedule: Q01DX009 (ip), vehicle: water); 111 % of control (dose: 5.0 mg/kg/injection, schedule: Q01DX009 (ip), vehicle: water); 100 % of control (dose: 10.0 mg/kg/injection, schedule: Q01DX009 (ip), vehicle: water).

For `O=c1[nH]c(=O)c2sc3ncccc3c2[nH]1`, the T/C (dose: 6.25 mg/kg/injection, schedule: Q01DX009 (ip), vehicle: saline) is 119 % of control; the T/C (dose: 12.5 mg/kg/injection, schedule: Q01DX009 (ip), vehicle: saline) is 100 % of control; the T/C under setting [4] is 101 % of control.

As to `N#Cc1c(N)nc2c(c(-c3ccc(Cl)cc3)nn2-c2ccccc2)c1C#N`, the T/C (dose: 7.5 mg/kg/injection, schedule: Q01DX005 (ip), vehicle: saline with Tween-80) is 97 % of control; the T/C (dose: 15.0 mg/kg/injection, schedule: Q01DX005 (ip), vehicle: saline with Tween-80) was 86 % of control and 96 % of control; the T/C (dose: 30.0 mg/kg/injection, schedule: Q01DX005 (ip), vehicle: saline with Tween-80) was 89 % of control and 90 % of control; the T/C (dose: 120.0 mg/kg/injection, schedule: Q01DX005 (ip), vehicle: saline with Tween-80) was 86 % of control and 91 % of control; the T/C (dose: 240.0 mg/kg/injection, schedule: Q01DX005 (ip), vehicle: saline with Tween-80) was 93 % of control.

`CC1=C(C(N)=O)C(c2ccccc2Cl)NC(=S)N1` (configuration not stated): the T/C is 117 % of control (dose: 60.0 mg/kg/injection, schedule: Q01DX005 (ip), vehicle: Klucel (hydroxypropylcellulose) (HPC)); 98 % of control (dose: 120.0 mg/kg/injection, schedule: Q01DX005 (ip), vehicle: Klucel (hydroxypropylcellulose) (HPC)); 99 % of control (dose: 240.0 mg/kg/injection, schedule: Q01DX005 (ip), vehicle: Klucel (hydroxypropylcellulose) (HPC)).
